Patent US20120029187A1, “HALOALKYLSULFONANILIDE DERIVATIVE” (Nissan Chemical Industries, Ltd., priority 2009, published 2012)

Assays:
Format in all cases: in vivo
[1] = system: barnyardgrass; assay: Test Example 1: herbicidal effects in preemergence treatment under submerged conditions; details: dose 2.52 g/a
How it was run: (§1)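 Score 0–5 by mortality (5: ≥90%; 0: <5%), read 3 weeks post-application. Paddy-type cups: alluvial soil under 4 cm water, weeds seeded plus transplanted 2.5-leaf rice; diluted EC dosed onto water surface same day as sowing, g/a basis; greenhouse 25 to 30° C.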

[2] = system: bulrush; assay: as above; details: dose 2.52 g/a
How it was run: as §1

[3] = system: ducksalad; assay: as above; details: dose 2.52 g/a
How it was run: as §1

[4] = system: transplanted rice; assay: Test Example 1: preemergence treatment under submerged conditions, effect on crop; details: dose 2.52 g/a
How it was run: as §1

[5] = system: barnyardgrass; assay: Test Example 2: herbicidal effects during the vegetation period under submerged conditions; details: treatment during the vegetation period under submerged conditions; dose 2.52 g/a
How it was run: (§2)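 Barnyardgrass, bulrush and ducksalad were co-sown in alluvial soil flooded to 4 cm and grown in a greenhouse at 25 to 30° C. At the 1- or 2-leaf stage, water-diluted emulsifiable concentrates went onto the water surface at set doses (g/a). Herbicidal effect was scored three weeks later on a graded scale.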

[6] = system: bulrush; assay: as above; details: treatment during the vegetation period under submerged conditions; dose 2.52 g/a
How it was run: as §2

[7] = system: ducksalad; assay: as above; details: treatment during the vegetation period under submerged conditions; dose 2.52 g/a
How it was run: as §2

[8] = system: Italian ryegrass; assay: Test Example 3: herbicidal effects in soil treatment; details: dose 3.2 g/a
How it was run: (§3)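 Seeds were sown in sterilized diluvial soil and covered with about 1.5 cm of soil. Compounds, formulated as emulsifiable concentrates and diluted with water, were sprayed evenly over the soil surface at set doses in g/a. Herbicidal effect was scored on a rating scale three weeks later.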

[9] = system: barnyardgrass; assay: as above; details: dose 3.2 g/a
How it was run: as §3

[10] = system: common chickweed; assay: as above; details: dose 3.2 g/a
How it was run: as §3

[11] = system: common lambsquater; assay: as above; details: dose 3.2 g/a
How it was run: as §3

[12] = system: common ragweed; assay: as above; details: dose 3.2 g/a
How it was run: as §3

[13] = system: giant foxtail; assay: as above; details: dose 3.2 g/a
How it was run: as §3

[14] = system: large crabgrass; assay: as above; details: dose 3.2 g/a
How it was run: as §3

[15] = system: posumbu knotweed; assay: as above; details: dose 3.2 g/a
How it was run: as §3

[16] = system: redroot pigweed; assay: as above; details: dose 3.2 g/a
How it was run: as §3

[17] = system: velvetleaf; assay: as above; details: dose 3.2 g/a
How it was run: as §3

[18] = system: water foxtail; assay: as above; details: dose 3.2 g/a
How it was run: as §3

[19] = system: wild oat; assay: as above; details: dose 3.2 g/a
How it was run: as §3

[20] = system: Italian ryegrass; assay: Test Example 4: herbicidal effect in foliage treatment; details: dose 3.2 g/a, three weeks after application
How it was run: (§4)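 A uniform foliar spray of emulsifiable concentrate, diluted with water to give the stated g/a dose, was applied to plants raised for 14 days from seed in sterilized diluvial soil at 25 to 30° C. Herbicidal effects were scored three weeks later.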

[21] = system: barnyardgrass; assay: as above; details: dose 3.2 g/a, three weeks after application
How it was run: as §4

[22] = system: beadstraw; assay: as above; details: dose 3.2 g/a, three weeks after application
How it was run: as §4

[23] = system: common chickweed; assay: as above; details: dose 3.2 g/a, three weeks after application
How it was run: as §4

[24] = system: common lambsquater; assay: as above; details: dose 3.2 g/a, three weeks after application
How it was run: as §4

[25] = system: common ragweed; assay: as above; details: dose 3.2 g/a, three weeks after application
How it was run: as §4

[26] = system: giant foxtail; assay: as above; details: dose 3.2 g/a, three weeks after application
How it was run: as §4

[27] = system: large crabgrass; assay: as above; details: dose 3.2 g/a, three weeks after application
How it was run: as §4

[28] = system: posumbu knotweed; assay: as above; details: dose 3.2 g/a, three weeks after application
How it was run: as §4

[29] = system: redroot pigweed; assay: as above; details: dose 3.2 g/a, three weeks after application
How it was run: as §4

[30] = system: velvetleaf; assay: as above; details: dose 3.2 g/a, three weeks after application
How it was run: as §4

[31] = system: water foxtail; assay: as above; details: dose 3.2 g/a, three weeks after application
How it was run: as §4

[32] = system: wild oat; assay: as above; details: dose 3.2 g/a, three weeks after application
How it was run: as §4

CC1COCC(=O)N1Cc1ccccc1NS(=O)(=O)C(F)(F)F (stereo not shown) [Compound I-13]
A: barnyardgrass, herbicidal effect (evaluation scale 0-5) [1]: 5 (mortality of 90% or above (nearly complete death)) | B: bulrush, herbicidal effect (evaluation scale 0-5) [2]: 5 (mortality of 90% or above (nearly complete death)) | C: ducksalad, herbicidal effect (evaluation scale 0-5) [3]: 5 (mortality of 90% or above (nearly complete death)) | a: transplanted rice, effect on crop (evaluation scale 0-5) [4]: 1 (mortality of at least 5% and less than 20%) | A: barnyardgrass, herbicidal effect (evaluation scale 0-5) [5]: 5 (mortality of 90% or above (nearly complete death)) | B: bulrush, herbicidal effect (evaluation scale 0-5) [6]: 5 (mortality of 90% or above (nearly complete death)) | C: ducksalad, herbicidal effect (evaluation scale 0-5) [7]: 5 (mortality of 90% or above (nearly complete death)) | H: Italian ryegrass, herbicidal effect (evaluation scale 0-5) [8]: 5 (mortality of 90% or above (nearly complete death)) | A: barnyardgrass, herbicidal effect (evaluation scale 0-5) [9]: 5 (mortality of 90% or above (nearly complete death)) | N: common chickweed, herbicidal effect (evaluation scale 0-5) [10]: 5 (mortality of 90% or above (nearly complete death)) | L: common lambsquater, herbicidal effect (evaluation scale 0-5) [11]: 5 (mortality of 90% or above (nearly complete death)) | J: common ragweed, herbicidal effect (evaluation scale 0-5) [12]: 5 (mortality of 90% or above (nearly complete death)) | E: giant foxtail, herbicidal effect (evaluation scale 0-5) [13]: 5 (mortality of 90% or above (nearly complete death)) | D: large crabgrass, herbicidal effect (evaluation scale 0-5) [14]: 5 (mortality of 90% or above (nearly complete death)) | M: posumbu knotweed, herbicidal effect (evaluation scale 0-5) [15]: 5 (mortality of 90% or above (nearly complete death)) | K: redroot pigweed, herbicidal effect (evaluation scale 0-5) [16]: 5 (mortality of 90% or above (nearly complete death)) | I: velvetleaf, herbicidal effect (evaluation scale 0-5) [17]: 5 (mortality of 90% or above (nearly complete death)) | G: water foxtail, herbicidal effect (evaluation scale 0-5) [18]: 5 (mortality of 90% or above (nearly complete death)) | F: wild oat, herbicidal effect (evaluation scale 0-5) [19]: 3 (mortality of at least 40% and less than 70%) | H: Italian ryegrass, herbicidal effect [20]: 5 (mortality of 90% or above (nearly complete death)) | A: barnyardgrass, herbicidal effect [21]: 5 (mortality of 90% or above (nearly complete death)) | O: beadstraw, herbicidal effect [22]: 4 (mortality of at least 70% and less than 90%) | N: common chickweed, herbicidal effect [23]: 4 (mortality of at least 70% and less than 90%) | L: common lambsquater, herbicidal effect [24]: 3 (mortality of at least 40% and less than 70%) | J: common ragweed, herbicidal effect [25]: 4 (mortality of at least 70% and less than 90%) | E: giant foxtail, herbicidal effect [26]: 4 (mortality of at least 70% and less than 90%) | D: large crabgrass, herbicidal effect [27]: 5 (mortality of 90% or above (nearly complete death)) | M: posumbu knotweed, herbicidal effect [28]: 3 (mortality of at least 40% and less than 70%) | K: redroot pigweed, herbicidal effect [29]: 3 (mortality of at least 40% and less than 70%) | I: velvetleaf, herbicidal effect [30]: 5 (mortality of 90% or above (nearly complete death)) | G: water foxtail, herbicidal effect [31]: 5 (mortality of 90% or above (nearly complete death)) | F: wild oat, herbicidal effect [32]: 0 (mortality of less than 5% (almost ineffective))

CCOC(=O)N(c1ccccc1CN1C(=O)COCC1C)S(=O)(=O)C(F)(F)F (stereo not shown) [Compound I-14]
A: barnyardgrass, herbicidal effect (evaluation scale 0-5) [1]: 5 (mortality of 90% or above (nearly complete death)) | B: bulrush, herbicidal effect (evaluation scale 0-5) [2]: 5 (mortality of 90% or above (nearly complete death)) | C: ducksalad, herbicidal effect (evaluation scale 0-5) [3]: 5 (mortality of 90% or above (nearly complete death)) | a: transplanted rice, effect on crop (evaluation scale 0-5) [4]: 0 (mortality of less than 5% (almost ineffective)) | A: barnyardgrass, herbicidal effect (evaluation scale 0-5) [5]: 5 (mortality of 90% or above (nearly complete death)) | B: bulrush, herbicidal effect (evaluation scale 0-5) [6]: 5 (mortality of 90% or above (nearly complete death)) | C: ducksalad, herbicidal effect (evaluation scale 0-5) [7]: 5 (mortality of 90% or above (nearly complete death)) | H: Italian ryegrass, herbicidal effect (evaluation scale 0-5) [8]: 5 (mortality of 90% or above (nearly complete death)) | A: barnyardgrass, herbicidal effect (evaluation scale 0-5) [9]: 5 (mortality of 90% or above (nearly complete death)) | N: common chickweed, herbicidal effect (evaluation scale 0-5) [10]: 5 (mortality of 90% or above (nearly complete death)) | L: common lambsquater, herbicidal effect (evaluation scale 0-5) [11]: 5 (mortality of 90% or above (nearly complete death)) | J: common ragweed, herbicidal effect (evaluation scale 0-5) [12]: 5 (mortality of 90% or above (nearly complete death)) | E: giant foxtail, herbicidal effect (evaluation scale 0-5) [13]: 5 (mortality of 90% or above (nearly complete death)) | D: large crabgrass, herbicidal effect (evaluation scale 0-5) [14]: 5 (mortality of 90% or above (nearly complete death)) | M: posumbu knotweed, herbicidal effect (evaluation scale 0-5) [15]: 5 (mortality of 90% or above (nearly complete death)) | K: redroot pigweed, herbicidal effect (evaluation scale 0-5) [16]: 5 (mortality of 90% or above (nearly complete death)) | I: velvetleaf, herbicidal effect (evaluation scale 0-5) [17]: 5 (mortality of 90% or above (nearly complete death)) | G: water foxtail, herbicidal effect (evaluation scale 0-5) [18]: 5 (mortality of 90% or above (nearly complete death)) | F: wild oat, herbicidal effect (evaluation scale 0-5) [19]: 4 (mortality of at least 70% and less than 90%) | H: Italian ryegrass, herbicidal effect [20]: 5 (mortality of 90% or above (nearly complete death)) | A: barnyardgrass, herbicidal effect [21]: 5 (mortality of 90% or above (nearly complete death)) | O: beadstraw, herbicidal effect [22]: 4 (mortality of at least 70% and less than 90%) | N: common chickweed, herbicidal effect [23]: 4 (mortality of at least 70% and less than 90%) | L: common lambsquater, herbicidal effect [24]: 5 (mortality of 90% or above (nearly complete death)) | J: common ragweed, herbicidal effect [25]: 4 (mortality of at least 70% and less than 90%) | E: giant foxtail, herbicidal effect [26]: 4 (mortality of at least 70% and less than 90%) | D: large crabgrass, herbicidal effect [27]: 4 (mortality of at least 70% and less than 90%) | M: posumbu knotweed, herbicidal effect [28]: 4 (mortality of at least 70% and less than 90%) | K: redroot pigweed, herbicidal effect [29]: 4 (mortality of at least 70% and less than 90%) | I: velvetleaf, herbicidal effect [30]: 5 (mortality of 90% or above (nearly complete death)) | G: water foxtail, herbicidal effect [31]: 5 (mortality of 90% or above (nearly complete death)) | F: wild oat, herbicidal effect [32]: 0 (mortality of less than 5% (almost ineffective))
